Laboratory results: publication PMC12226733, “Evolution of iGluR ligand specificity, polyamine regulation, and ion selectivity inferred from a placozoan epsilon receptor” (Communications Biology, 2025)
Values joined by “and” are separate entries in the source; they are usually repeats but may differ in a detail not shown here. Equal values may be shown once. Read-outs that look alike come from different tables or passages of the source.

Key:
GluA2(Q) wt + γ2 = target: T1, GluA2(Q) wt + γ2 (Homo sapiens, UniProt P42262); experiment: outside-out patch clamp, block by intracellular spermine, HEK-293T/17 cells; type: biochemical; conditions: for Normalized conductance (Gnorm) GluA2 wild type + γ2 / Normalized current (Inorm) GluA2 wild type + γ2: single recordings and AVG;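 as to Normalized conductance (Gnorm) GluA2 wild type + γ2: normalized to each receptor's own maximal conductance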
T1 construct: expressed in transfected cells; host or cells: HEK-293T/17
Description: Parallel experiments were carried out in human GluA2 homotetramers bearing equivalent Q/R/N and +4 site mutations to compare the regulation of voltage-dependent polyamine block within the broader context of mammalian receptors. Experimental design remained the same, except for using 10 mM glutamate as the agonist used to evoke membrane currents (Fig. 7a, d, g, and j). […] Their properties were accordingly compared to wildtype GluA2(Q) co-expressed with TARP-γ2.
HEK-293T/17 cells (ATCC) were maintained in MEM supplemented with GlutaMAX and 10% fetal bovine serum (FBS) at 37 °C and 5% CO2. […] Transient transfections were carried out 48 h post-plating using the calcium phosphate precipitation method. After 6–8 hours, cells were washed twice with PBS and maintained in fresh medium. Cells transfected with mammalian GluA2 cDNA (plasmid vector described above) were returned to an incubator at 37 °C for 24–48 hours and cells transfected with Epsilon GluE1αA were incubated at 28 °C for 48–72 hours. In cells co-transfected with TARP-γ2, 30 μM NBQX was included in the medium to minimize AMPAR/auxiliary-induced cytotoxicity. All constructs were co-transfected with a plasmid encoding enhanced green fluorescent protein (eGFP) to identify transfected cells. Electrophysiology responses were recorded from outside-out patches excised from transfected cells. Recording pipettes were composed of borosilicate glass (3 to 6 megaohm, King Precision Glass) coated with dental wax to reduce electrical noise. All recordings were performed using Axopatch 200B amplifier (Molecular Devices, LLC). Current records were filtered at 5 or 10 kHz and sampled at 25–50 kHz. Series resistance (3 to 12 megaohms) was compensated by 95%. Recordings were performed at a range of holding potentials from −100 mV to 100 mV to study polyamine block. Data was acquired using pClamp9 software (Molecular Devices, LLC). All experiments were performed at room temperature. All chemicals were purchased from Sigma-Aldrich, unless otherwise indicated. External solution contained (in mM): 150 NaCl, 5 HEPES, 0.1 CaCl2, 0.1 MgCl, and […], pH 7.3–7.4. […] The osmotic pressure of all solutions was adjusted to 295 to 300 mOsm with sucrose. […] Stocks were thawed on the day of the experiment and used to prepared agonist-containing external solutions. Raw data for all electrophysiology experiments are provided in Supplementary Data 3. Current-voltage (I-V) relationships were fit using Origin 7 (OriginLab) using a ninth order polynomial function to estimate the reversal potential (Vrev).
Agonist-evoked membrane conductance (G) was calculated using the following equation: G=I/(V−Vrev)
Conductance-voltage (G-V) relationships were fit using Origin 7 (OriginLab) with the single permeant blocker model as done previously[46]: G=Gmax/1+[Spm]/Kd Where Gmax is the maximal conductance, [Spm] is the internal Spm concentration, and Kd is the dissociation constant.
Kd is defined as: Kd=koff+kperm/kon=sumofexitrates/bindingrate
And redefined as: Kd=g*exp(V/h)+L*exp(V/k) Where h and k are voltage dependencies of g and L, respectively, and at 0 mV: g=koff/konandL=kperm/kon

GluE1αA S642N = target: T2, GluE1αA S642N (Trichoplax adhaerens, UniProt B3SAW0, S167N); type: cell-based; conditions: for normalized conductance (G-V, Figure 5g), Avg: Na vs Na; for I-V current, Na vs Na, Avg of recordings: Figure 5b
T2 sequence (B3SAW0 1-341 S167N): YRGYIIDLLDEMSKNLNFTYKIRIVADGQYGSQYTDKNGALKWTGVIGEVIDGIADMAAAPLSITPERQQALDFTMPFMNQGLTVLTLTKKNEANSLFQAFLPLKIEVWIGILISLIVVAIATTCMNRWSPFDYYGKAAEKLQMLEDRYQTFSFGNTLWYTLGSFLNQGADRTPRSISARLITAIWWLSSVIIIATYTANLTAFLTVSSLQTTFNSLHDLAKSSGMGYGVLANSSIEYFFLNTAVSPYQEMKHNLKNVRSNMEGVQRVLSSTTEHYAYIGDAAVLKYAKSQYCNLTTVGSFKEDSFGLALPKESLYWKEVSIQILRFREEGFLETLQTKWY

T1 sequence (P42262 25-883): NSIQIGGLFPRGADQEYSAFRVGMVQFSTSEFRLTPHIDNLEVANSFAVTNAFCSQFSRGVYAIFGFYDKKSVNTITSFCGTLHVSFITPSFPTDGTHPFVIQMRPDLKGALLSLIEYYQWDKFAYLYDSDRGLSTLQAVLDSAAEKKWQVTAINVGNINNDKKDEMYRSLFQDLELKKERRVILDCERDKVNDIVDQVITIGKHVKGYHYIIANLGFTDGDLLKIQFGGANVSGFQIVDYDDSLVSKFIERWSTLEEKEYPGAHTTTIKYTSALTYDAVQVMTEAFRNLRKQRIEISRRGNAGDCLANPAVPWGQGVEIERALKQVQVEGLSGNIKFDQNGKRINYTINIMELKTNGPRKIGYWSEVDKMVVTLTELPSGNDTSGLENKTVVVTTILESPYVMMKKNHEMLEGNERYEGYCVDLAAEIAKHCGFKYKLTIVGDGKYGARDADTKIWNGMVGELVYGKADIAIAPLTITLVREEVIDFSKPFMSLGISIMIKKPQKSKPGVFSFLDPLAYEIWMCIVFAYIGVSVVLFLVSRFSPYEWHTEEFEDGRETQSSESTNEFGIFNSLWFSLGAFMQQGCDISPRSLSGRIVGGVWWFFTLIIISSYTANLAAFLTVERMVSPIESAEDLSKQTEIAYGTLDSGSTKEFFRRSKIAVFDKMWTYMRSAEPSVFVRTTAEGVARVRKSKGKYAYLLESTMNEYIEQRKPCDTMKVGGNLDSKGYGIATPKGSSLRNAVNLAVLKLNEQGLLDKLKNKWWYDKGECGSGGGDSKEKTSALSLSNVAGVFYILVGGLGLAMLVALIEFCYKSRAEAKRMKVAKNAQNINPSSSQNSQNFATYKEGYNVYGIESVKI
T1 sequence (Q9Y698 whole entry partner): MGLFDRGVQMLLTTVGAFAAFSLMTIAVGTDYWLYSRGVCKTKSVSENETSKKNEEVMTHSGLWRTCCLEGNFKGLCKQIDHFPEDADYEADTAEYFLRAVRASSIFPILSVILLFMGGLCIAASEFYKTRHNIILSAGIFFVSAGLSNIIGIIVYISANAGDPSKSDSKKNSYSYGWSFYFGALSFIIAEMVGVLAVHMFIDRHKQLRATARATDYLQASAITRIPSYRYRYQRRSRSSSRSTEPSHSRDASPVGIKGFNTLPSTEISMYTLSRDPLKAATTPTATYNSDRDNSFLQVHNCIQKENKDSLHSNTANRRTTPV

NCCCNCCCCNCCCN [spermine]
Normalized conductance (Gnorm) GluA2 wild type + γ2 (GluA2(Q) wt + γ2; 0 mV): 0.51 and 0.59 and 0.49 and 0.67 and 0.55 and 0.56
Normalized conductance (Gnorm) GluA2 wild type + γ2 (GluA2(Q) wt + γ2; 10 mV): 0.45 and 0.34 and 0.59 and 0.41
Normalized current (Inorm) GluA2 wild type + γ2 (GluA2(Q) wt + γ2; 10 mV): 0.0271 and 0.03 and 0.0219 and 0.0374 and 0.0215 and 0.0279
Normalized conductance (Gnorm) GluA2 wild type + γ2 (GluA2(Q) wt + γ2; 20 mV): 0.46 and 0.44 and 0.31 and 0.56 and 0.39 and 0.43
Normalized current (Inorm) GluA2 wild type + γ2 (GluA2(Q) wt + γ2; 20 mV): 0.06 and 0.0741 and 0.05 and 0.09 and 0.07
Normalized conductance (Gnorm) GluA2 wild type + γ2 (GluA2(Q) wt + γ2; 30 mV): 0.53 and 0.56 and 0.39 and 0.59 and 0.50 and 0.51
Normalized current (Inorm) GluA2 wild type + γ2 (GluA2(Q) wt + γ2; 30 mV): 0.12 and 0.15 and 0.10 and 0.13
Normalized conductance (Gnorm) GluA2 wild type + γ2 (GluA2(Q) wt + γ2; 40 mV): 0.62 and 0.71 and 0.51 and 0.66 and 0.63
Normalized current (Inorm) GluA2 wild type + γ2 (GluA2(Q) wt + γ2; 40 mV): 0.20 and 0.26 and 0.18 and 0.23 and 0.22
Normalized conductance (Gnorm) GluA2 wild type + γ2 (GluA2(Q) wt + γ2; 50 mV): 0.72 and 0.83 and 0.63 and 0.75 and 0.82
Normalized current (Inorm) GluA2 wild type + γ2 (GluA2(Q) wt + γ2; 50 mV): 0.30 and 0.38 and 0.28 and 0.34 and 0.37 and 0.33
Normalized conductance (Gnorm) GluA2 wild type + γ2 (GluA2(Q) wt + γ2; 60 mV): 0.78 and 0.91 and 0.73 and 0.84 and 0.90 and 0.83
Normalized current (Inorm) GluA2 wild type + γ2 (GluA2(Q) wt + γ2; 60 mV): 0.39 and 0.50 and 0.46 and 0.45
Normalized conductance (Gnorm) GluA2 wild type + γ2 (GluA2(Q) wt + γ2; 70 mV): 0.82 and 0.96 and 0.81 and 0.89 and 0.95
Normalized current (Inorm) GluA2 wild type + γ2 (GluA2(Q) wt + γ2; 70 mV): 0.49 and 0.62 and 0.51 and 0.57
Normalized conductance (Gnorm) GluA2 wild type + γ2 (GluA2(Q) wt + γ2; 80 mV): 0.83 and 1.04 and 0.88 and 0.91 and 0.99 and 0.93
Normalized current (Inorm) GluA2 wild type + γ2 (GluA2(Q) wt + γ2; 80 mV): 0.57 and 0.78 and 0.64 and 0.67 and 0.75 and 0.68
Normalized conductance (Gnorm) GluA2 wild type + γ2 (GluA2(Q) wt + γ2; 90 mV): 0.86 and 0.93 and 1.02 and 0.94
Normalized current (Inorm) GluA2 wild type + γ2 (GluA2(Q) wt + γ2; 90 mV): 0.68 and 0.77 and 0.73 and 0.87 and 0.76
Normalized current (Inorm) GluA2 wild type + γ2 (GluA2(Q) wt + γ2; 100 mV): 0.71 and 0.89 and 0.76 and 1.01 and 0.84
Normalized conductance (Gnorm) GluA2 wild type + γ2 (GluA2(Q) wt + γ2; -10 mV): 0.69 and 0.62 and 0.75
Normalized current (Inorm) GluA2 wild type + γ2 (GluA2(Q) wt + γ2; -10 mV): -0.0852
Normalized conductance (Gnorm) GluA2 wild type + γ2 (GluA2(Q) wt + γ2; -20 mV): 0.78 and 0.82 and 0.74 and 0.85 and 0.80
Normalized conductance (Gnorm) GluA2 wild type + γ2 (GluA2(Q) wt + γ2; -30 mV): 0.84 and 0.88 and 0.83 and 0.85 and 0.92 and 0.86
Normalized conductance (Gnorm) GluA2 wild type + γ2 (GluA2(Q) wt + γ2; -40 mV): 0.90 and 0.92 and 0.89 and 0.96 and 0.91
Normalized conductance (Gnorm) GluA2 wild type + γ2 (GluA2(Q) wt + γ2; -50 mV): 0.96 and 0.94 and 0.92 and 0.93 and 0.98 and 0.95
Normalized conductance (Gnorm) GluA2 wild type + γ2 (GluA2(Q) wt + γ2; -60 mV): 0.99 and 0.97 and 0.98
Normalized conductance (Gnorm) GluA2 wild type + γ2 (GluA2(Q) wt + γ2; -70 mV): 1.01 and 0.98 and 0.99 and 0.97 and 0.96
Normalized conductance (Gnorm) GluA2 wild type + γ2 (GluA2(Q) wt + γ2; -80 mV): 1.01 and 0.98 and 1.00 and 0.99
Normalized conductance (Gnorm) GluA2 wild type + γ2 (GluA2(Q) wt + γ2; -90 mV): 1.00 and 0.99 and 0.98
Normalized conductance (Gnorm) GluA2 wild type + γ2 (GluA2(Q) wt + γ2; -100 mV): 1.02 and 1.00 and 0.95
Normalized current (Inorm) GluA2 wild type + γ2 (GluA2(Q) wt + γ2; -100 mV): -1.00
h, voltage dependency of block onset (GluA2(Q) wt + γ2; GluA2(Q) wt + γ2): −16.7 ± 1.9 mV
k, voltage dependency of block relief (GluA2(Q) wt + γ2; GluA2(Q) wt + γ2): 18.2 ± 3.0 mV
Kd (GluA2(Q) wt + γ2; GluA2(Q) wt + γ2, 30 µM internal Spm, 10 mM glutamate, read-out: Kd(0mV)): 38.4 ± 11.9 µM
h (GluA2(Q) wt + γ2; fit of Gnorm vs voltage, GluA2 wild type + γ2, single recordings): -13.23

[Na+] [Na]
pNa/pNa (GluE1αA S642N): 1.08
normalized conductance (G-V, Figure 5g), Avg (GluE1αA S642N; Vm 0.00): 0.09
normalized conductance (G-V, Figure 5g), Avg (GluE1αA S642N; Vm 20.00): 0.06
normalized conductance (G-V, Figure 5g), Avg (GluE1αA S642N; Vm 40.00): 0.14
normalized conductance (G-V, Figure 5g), Avg (GluE1αA S642N; Vm 60.00): 0.27
normalized conductance (G-V, Figure 5g), Avg (GluE1αA S642N; Vm 80.00): 0.34
normalized conductance (G-V, Figure 5g), Avg (GluE1αA S642N; Vm -20.00): 0.24
normalized conductance (G-V, Figure 5g), Avg (GluE1αA S642N; Vm -40.00): 0.49
normalized conductance (G-V, Figure 5g), Avg (GluE1αA S642N; Vm -60.00): 0.76
normalized conductance (G-V, Figure 5g), Avg (GluE1αA S642N; Vm -80.00): 1.00
I-V current, Na vs Na, Avg of recordings (GluE1αA S642N; Vm 0.00): -0.00109
I-V current, Na vs Na, Avg of recordings (GluE1αA S642N; Vm 20.00): 0.0153
I-V current, Na vs Na, Avg of recordings (GluE1αA S642N; Vm 40.00): 0.04
I-V current, Na vs Na, Avg of recordings (GluE1αA S642N; Vm 60.00): 0.11
I-V current, Na vs Na, Avg of recordings (GluE1αA S642N; Vm 80.00): 0.22
I-V current, Na vs Na, Avg of recordings (GluE1αA S642N; Vm -20.00): -0.0458
I-V current, Na vs Na, Avg of recordings (GluE1αA S642N; Vm -40.00): -0.16
I-V current, Na vs Na, Avg of recordings (GluE1αA S642N; Vm -60.00): -0.37
I-V current, Na vs Na, Avg of recordings (GluE1αA S642N; Vm -80.00): -0.64
